The text below walks through data of PubChem BioAssay (NCI).

Some test systems named below: T-47D breast; MDA-MB-231 breast; IGROV1 ovarian; HL-60(TB) leukemia; SK-OV-3 ovarian; SF-539 CNS; OVCAR-4 ovarian; COLO 205 colon; ACHN renal; SR leukemia.
Holding throughout (assay): inhibition of tumour cell growth, NCI panel, 48 h

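Five compound concentrations were applied to cells in 96-well plates for 48 hours; endpoints were derived by simple linear interpolation of the resulting dose-response curve. GI50: concentration for 50% inhibition of growth. TGI is the concentration that stops growth completely.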

As to `CCCCOC1OC(COC(=O)C(C)C)C(OC(=O)C(C)C)C(O)C1OC1OC(C)C(OC(=O)CCC)C(OC(=O)C(C)C)C1O` (centres undefined), the GI50 in the assay on T-47D breast is 15 µM; in the assay with MDA-MB-231 breast it was 10.1 µM; in the assay with IGROV1 ovarian it was 22.7 µM; with HL-60(TB) leukemia, 18.1 µM; in the assay on SK-OV-3 ovarian, 19.8 µM; in the assay with SF-539 CNS it was 20.5 µM. Besides, the GI50 is 15.1 µM in the assay with OVCAR-4 ovarian, 13.1 µM in the assay with COLO 205 colon and 14.9 µM in the assay on ACHN renal. The TGI came out at 35.3 µM in the assay with T-47D breast; 21.7 µM in the assay on MDA-MB-231 breast; 58.5 µM in the assay with IGROV1 ovarian; 42.9 µM in the assay on HL-60(TB) leukemia; 34 µM in the assay on SK-OV-3 ovarian; 34.8 µM in the assay with SF-539 CNS. Further, the figures for the TGI with OVCAR-4 ovarian, in the assay with COLO 205 colon and with ACHN renal were 30.4 µM, 25.8 µM and 28.1 µM, respectively.
As for `Cc1cc(Cl)ccc1C(=O)c1ccc2ccccc2c1C(=O)O`, the TGI in the assay on T-47D breast, with MDA-MB-231 breast, in the assay with IGROV1 ovarian, in the assay on HL-60(TB) leukemia, with SF-539 CNS and in the assay on OVCAR-4 ovarian was > 100 µM in each case. Further, the TGI in the assay with SR leukemia, in the assay on COLO 205 colon and in the assay on ACHN renal was > 100 µM each time.
On to `O=C(O)c1c(Br)c(Br)c(Br)c(Br)c1C1c2ccc(O)cc2Oc2cc(O)ccc21`, for which the TGI with T-47D breast was > 100 µM; in the assay on MDA-MB-231 breast it was > 100 µM; in the assay on IGROV1 ovarian it was > 100 µM; in the assay on HL-60(TB) leukemia, 30.1 µM; in the assay on SK-OV-3 ovarian, > 100 µM; in the assay with SF-539 CNS it was > 100 µM. The TGI in the assay with OVCAR-4 ovarian, with COLO 205 colon and in the assay on ACHN renal was > 100 µM throughout.
Consider `Cc1ccc(-n2nnnc2-c2cnc(N3CCOCC3)nc2-c2cccc(C(F)(F)F)c2)cc1`, for which the GI50 was 2.31 µM in the assay on T-47D breast; 3.24 µM with MDA-MB-231 breast; 1.63 µM in the assay on IGROV1 ovarian; 2.34 µM with HL-60(TB) leukemia; 1.48 µM in the assay on SK-OV-3 ovarian; 1.16 µM in the assay with SF-539 CNS. Further, the GI50 is 1.13 µM in the assay on SR leukemia, 1.81 µM in the assay on COLO 205 colon and 4 µM in the assay with ACHN renal. Besides, the TGI was > 15.6 µM with T-47D breast; > 12.2 µM in the assay with MDA-MB-231 breast; > 10.7 µM in the assay with IGROV1 ovarian; 17.5 µM in the assay on HL-60(TB) leukemia; > 13.3 µM in the assay on SK-OV-3 ovarian; 2.72 µM with SF-539 CNS. The values for the TGI with SR leukemia, with COLO 205 colon and in the assay on ACHN renal were 3.17 µM, > 13.5 µM and > 14.7 µM, respectively.
`CC1SC2(CCCCC2)N(NC(=O)c2[nH]c3ccc(Br)cc3c2-c2ccccc2)C1=O` (centres undefined): the GI50 was 20.5 µM in the assay with T-47D breast; 20.4 µM in the assay with MDA-MB-231 breast; 4.02 µM with IGROV1 ovarian; > 100 µM in the assay with SK-OV-3 ovarian; > 100 µM in the assay with SF-539 CNS; 13.2 µM with OVCAR-4 ovarian. In addition, the GI50 is > 100 µM in the assay on COLO 205 colon and 61.3 µM in the assay with ACHN renal. Moreover, the TGI in the assay with T-47D breast is > 100 µM; in the assay with MDA-MB-231 breast, 79.6 µM; with IGROV1 ovarian it was 28.4 µM; in the assay on SK-OV-3 ovarian, > 100 µM; in the assay on SF-539 CNS it was > 100 µM; in the assay with OVCAR-4 ovarian it was 90.7 µM. Further, the TGI with COLO 205 colon and in the assay with ACHN renal was > 100 µM throughout.
`CCOc1ccc2c(c1)c(CC(=O)O)cn2C`: the TGI in the assay on T-47D breast, in the assay with MDA-MB-231 breast, with HL-60(TB) leukemia, in the assay on SK-OV-3 ovarian, in the assay with SF-539 CNS and in the assay on SR leukemia was > 100 µM throughout. In addition, the TGI with COLO 205 colon and in the assay on ACHN renal was > 100 µM each time.
Consider `CC(=O)Nc1n[n+]([O-])c2cc(C)ccc2[n+]1[O-]`, for which the TGI with T-47D breast turned out to be 11.4 µM; in the assay on MDA-MB-231 breast, 23.4 µM; in the assay with IGROV1 ovarian, 5.33 µM; with SK-OV-3 ovarian it was 20.3 µM; in the assay on SF-539 CNS, 5.36 µM; in the assay with OVCAR-4 ovarian it was 18 µM. The values for the TGI in the assay with SR leukemia, with COLO 205 colon and with ACHN renal were > 100 µM, 8.48 µM and 11.2 µM, respectively.
`COc1cnc2c(c1)C(=O)c1c-2n(CCCN2CCC(O)CC2)c(=O)c2cc(Cl)ccc12`: the GI50 in the assay with T-47D breast was 0.656 µM; with MDA-MB-231 breast, 1.51 µM; with HL-60(TB) leukemia, 0.929 µM; with SK-OV-3 ovarian it was 0.341 µM; in the assay with SF-539 CNS, 0.433 µM; in the assay with OVCAR-4 ovarian, 1.34 µM. Moreover, the GI50 with SR leukemia is 0.0888 µM; in the assay with COLO 205 colon it was 0.661 µM; in the assay on ACHN renal, 0.0903 µM. For the same molecule, the TGI was determined as 4.69 µM with T-47D breast; 3.12 µM in the assay on MDA-MB-231 breast; 4.32 µM in the assay with HL-60(TB) leukemia; 17.5 µM with SK-OV-3 ovarian; 1.64 µM in the assay on SF-539 CNS; 3.08 µM with OVCAR-4 ovarian. For the same molecule, the TGI was 13.2 µM in the assay on SR leukemia, 2.64 µM in the assay with COLO 205 colon and 1.5 µM in the assay with ACHN renal.
As for `Cc1[nH]c2cc(F)ccc2c1-c1nc2c3cccnc3c3ncccc3c2[nH]1`, the GI50 with T-47D breast was 0.341 µM; with MDA-MB-231 breast it was 0.409 µM; with HL-60(TB) leukemia it was 0.205 µM; in the assay with SF-539 CNS, 0.287 µM; in the assay with OVCAR-4 ovarian, 0.0438 µM; with SR leukemia, 0.0723 µM. Also, the GI50 with COLO 205 colon is 0.178 µM; in the assay with ACHN renal, 0.254 µM. Moreover, the TGI in the assay on T-47D breast turned out to be 1.28 µM; with MDA-MB-231 breast, 2.4 µM; with HL-60(TB) leukemia, 0.564 µM; in the assay on SF-539 CNS, 1.29 µM; with OVCAR-4 ovarian it was 1.23 µM; with SR leukemia it was 0.797 µM. In addition, the figures for the TGI in the assay with COLO 205 colon and in the assay on ACHN renal were 1.26 µM and 1.45 µM, respectively.
`NC(CSSCC(N)C(=O)O)C(=O)O` (centres undefined): the GI50 in the assay with T-47D breast, in the assay with MDA-MB-231 breast, in the assay with IGROV1 ovarian, in the assay with HL-60(TB) leukemia, in the assay with SK-OV-3 ovarian and in the assay on SF-539 CNS was > 100 µM in each case. In addition, the GI50 with OVCAR-4 ovarian, with COLO 205 colon and in the assay with ACHN renal was > 100 µM each time. Further, the TGI in the assay with T-47D breast, with MDA-MB-231 breast, with IGROV1 ovarian, in the assay with HL-60(TB) leukemia, in the assay with SK-OV-3 ovarian and in the assay with SF-539 CNS was > 100 µM each time. Besides, the TGI in the assay on OVCAR-4 ovarian, in the assay with COLO 205 colon and in the assay on ACHN renal was > 100 µM throughout.
